{"source": "patent US20250177478A1", "about": "“G ALPHA Q/11 INHIBITORS FOR USE AS AN ANALGESIC” (University of Florida Research Foundation, Incorporated, priority 2022, published 2025)", "key": {"C57BL/6 mice [1]": {"tested_on": "C57BL/6 mice", "assay": "Hot plate test (52.5° C), anti-nociception", "assay_type": "in vivo, mouse", "from_the_text": "(§1) A. Experimental animals. C57BL/6 mice (6-8 weeks old) of both sexes were used. Mice were housed in groups on a 12-h light-dark cycle (6:00 am light cycle; 6:00 pm dark cycle) with food (Teklad Global 16% protein rodent diets; Envigo Inc., WI, USA) and water available ad libitum. Animal groups were compiled to ensure minimization of factors (e.g., weight, sex, and health). Mice were within 20-28 g in weight at start of all studies. All tested groups contained a control group and consisted of male and female mice. Males and females were tested on the same day but at different times so that they were not in the room at the same time. All the experiments were tested during the light cycle between 8:00 am and 3:00 pm to avoid any long-term disruption of sleep cycles. Mice were transferred to the behavioural testing room at least 45 min before the first test to acclimatize. Following behavioural evaluation, animals were killed by CO2 inhalation, followed by cervical dislocation and postmortem decapitation.\n(§2) B. Drug treatments. […] The dose of YM-254890 for subcutaneous injection was taken from previous published studies. The dose of morphine selected for subcutaneous administration (2.5, 5 and 10 mg kg-1) is commonly used in mouse analgesia. For the combined administration of morphine and YM-254890 on thermal anti-nociception, YM-254890 was administered 10 min before the morphine. The latency of response was measured before injection of drugs (baseline latency response) and at different time intervals (post-treatment latency response) after drugs injection.\nD. Intracerebral injections. Intracerebroventricular administration was performed following the method described previously with slight modifications (Haley T J et al. “Pharmacological effects produced by intracerebral injection of drugs in the conscious mouse.” British Journal of Pharmacology and Chemotherapy, (1957) 12:12-15; Narita M et al. “Reduced expression of a novel μ-opioid receptor (MOR) subtype MOR-1B in CXBK mice: Implications of MOR-1B in the expression of MOR-mediated responses.” The European Journal of Neuroscience (2003) 18:3193-3198)). On the day of the drug/vehicle injection or on the day of behavioural test, the mouse was secured at the nape of the neck and head by the investigator's thumb and forefinger, and head of the mouse was held against a V-shaped holder. A 27-gauge hypodermic needle attached with 25 μL. Hamilton microsyringe was inserted perpendicularly into the unilateral injection site into the hole with the depth of 3.5 mm. The injection volume was 4 μL.\n(1) Hot Plate test. Animals were tested for the assessment of anti-nociception and analgesic effects of morphine using a hotplate set to 52.5° C. The assay was performed as described previously (Bannon A W et al. “Models of nociception: Hotplate, tail-flick, and formalin tests in rodents.” In Current Protocols in Neuroscience, Chapter 8: Unit 8.9. Wiley (2007); Wang D et al. “Genetic behavioral screen identifies an orphan anti-opioid system.” Science (2019) 365:1267-1273). Mice were placed in a Plexiglas chamber (16″ tall and 8″ in diameter) on a ceramic plate heated to 52.5° C. and the timer started."}, "C57BL/6 mice [2]": {"tested_on": "C57BL/6 mice", "from_the_text": "as §1, §2\nC. Intrathecal injections. Intrathecal (i.t.) administration was performed following the method described previously (Hylden J L et al. “Intrathecal morphine in mice: a new technique.” Eur J Pharmacol (1980) 67:313-316; Li D et al. “Direct Intrathecal Injection of Recombinant Adeno-associated Viruses in Adult Mice.” J Vis Exp (2019)) with slight modifications. All intrathecal injections were performed using a 25 μL Hamilton syringe with a 30-gauge needle. The injection volume was 5 μL for each mouse. […] Each solution was injected without injection cannulae. Intrathecal injections were made into the L5-L6 intervertebral space of unanesthetized mice. The flick of the tail was considered indicative of a successful i.t. administration."}, "[3]": {"conditions": "YM-254890 s.c. with morphine 5 mg/kg s.c., all animals"}}, "note": "Positions of bridges follow the written chain, without caps; N, C: chain ends. Non-standard residues stand in square brackets, D forms with d. Residues, ends and D or L forms follow the SMILES beside them. Leu(3R-O(AcLeu(3R-OH))) = CC(=O)N[C@H](C(=O)O[C@H](C(C)C)[C@H](N)C(=O)O)[C@H](O)C(C)C; NMeT = CN[C@H](C(=O)O)[C@@H](C)O; dPhLac = O=C(O)[C@H](O)Cc1ccccc1; NMeA = CN[C@@H](C)C(=O)O; NMeDha = C=C(NC)C(=O)O", "data": [{"smiles": "C=C1C(=O)N[C@@H](C)C(=O)N(C)[C@@H](C)C(=O)N[C@@H]([C@H](OC(=O)[C@@H](NC(C)=O)[C@H](O)C(C)C)C(C)C)C(=O)N(C)[C@@H]([C@@H](C)OC)C(=O)O[C@H](C)[C@H](NC(C)=O)C(=O)O[C@H](Cc2ccccc2)C(=O)N1C", "note": "[YM-254890] (Ac-T[dPhLac][NMeDha]A[NMeA][Leu(3R-O(AcLeu(3R-OH)))][NMeT](Me); ester 1-C)", "values": [{"measurement": "effect on opioid-induced analgesia, hotplate test", "setting": "C57BL/6 mice [1]; YM-254890 0.25 mg·kg−1 s.c. (subthreshold) 10 min before morphine 5 mg/kg s.c.", "value": "significantly potentiated anti-nociceptive effects"}, {"measurement": "effect on opioid-induced analgesia, hotplate test", "setting": "C57BL/6 mice [1]; YM-254890 0.5 mg·kg−1 s.c. 10 min before morphine 5 mg/kg s.c.", "value": "further enhancement of opioid analgesia"}, {"measurement": "effect on onset timing and duration of opioid analgesia, hotplate test", "setting": "C57BL/6 mice [1]; YM-254890 0.25 or 0.5 mg·kg−1 s.c. with morphine 5 mg/kg s.c.", "value": "no effect on either the onset timing or duration of the opioid analgesia"}, {"measurement": "time of maximal analgesic response after injection, hotplate test", "setting": "C57BL/6 mice [1]; YM-254890 alone, subcutaneous, 0.5 and 1.0 mg·kg−1", "value": 30, "unit": "min"}, {"measurement": "paw withdrawal latencies in hotplate test", "setting": "C57BL/6 mice [1]; YM-254890 alone, subcutaneous, higher doses 0.5 and 1.0 mg·kg−1", "value": "produced increases in paw withdrawal latencies"}, {"measurement": "paw withdrawal latencies in hotplate test", "setting": "C57BL/6 mice [1]; YM-254890 alone, subcutaneous, lower doses 0.1 and 0.3 mg·kg−1", "value": "No significant effect"}, {"measurement": "analgesia in hotplate test after delivery directly into the brain", "setting": "C57BL/6 mice [1]; YM-254890 i.c.v. 0.4, 1.2, 4 nmol", "value": "dose-dependent increase in both the extent and duration of analgesia"}, {"measurement": "time to reach maximal latencies, hotplate test", "setting": "C57BL/6 mice [1]; [3]", "value": "about 30 min"}, {"measurement": "time to recover to baseline nociceptive thresholds, hotplate test", "setting": "C57BL/6 mice [1]; [3]", "value": "about 3 h"}, {"measurement": "effect on morphine locomotor-sensitizing effect, open-field test", "setting": "C57BL/6 mice [2]; YM-254890 0.5 mg/kg s.c. 10 min before morphine 5 mg/kg s.c., 120 min", "value": "completely suppressed these effects"}, {"measurement": "locomotion in open-field test", "setting": "C57BL/6 mice [2]; YM-254890 0.5 mg/kg s.c. with morphine 5 mg/kg s.c., comparable with YM-254890 alone", "value": "substantial decrease in locomotion"}, {"measurement": "motor activity in open-field test after intrathecal delivery", "setting": "C57BL/6 mice [2]; YM-254890 intrathecal 3.0 nmol, alone or in combination with morphine 2.5 mg/kg s.c., 120 min", "value": "no significant changes in motor activity"}]}]}
